Data taken from EP4818176A1, “TETRACYCLIC DERIVATIVE INHIBITOR, AND PREPARATION METHOD AND USE THEREFOR” (Shanghai Hansoh Biomedical Co., Ltd., priority 2023, dated 2025).
Like-named read-outs stand apart in the source and are kept apart here.

Legend:
[1] = test system: MTAP Knockout HCT116 cells; assay: Cell proliferation inhibition (CellTiter-Glo), HCT116 MTAP knockout cells; assay type: cell-based; conditions: for Selectivity: HCT116 IC50 versus MTAP Knockout HCT116 IC50; for IC50: Homo sapiens
Source text: (§1) Test Example 2: Determination of the inhibitory effect of the compounds of the present invention on the proliferation activity of HCT116 and MTAP Knockout HCT116 cells.
(§2) 1 Experimental objective: The objective of this test example is to determine the inhibitory effect of the compound on the proliferation activity of HCT116 wild-type and HCT116 MTAP knockout cells. 2 Experimental instruments: Centrifuge (Eppendorf 5810R); microplate reader (BioTek Synergy H1 or PerkinElmer Envision); pipette (Eppendorf or Rainin). 3 Experimental reagents: HCT116 and MTAP Knockout HCT116 cells were purchased from Nanjing Cobioer; Cell Titer-Glo was purchased from Promega (Cat. No. G7573); McCoy'5A was purchased from Gibco (Cat. No. 12330031); FBS was purchased from Gibco (Cat. No. 10091148); PBS was purchased from Gibco (Cat. No. 10010023); trypsin was purchased from Gibco (Cat. No. 25200056); cell culture plates were purchased from Corning (Cat. No. 3610). 4 Experimental method: HCT116 and MTAP Knockout HCT116 cells were cultured in McCoy'5A medium containing 10% FBS until an appropriate cell density was reached. The cells were then collected and adjusted to a suitable concentration using complete medium. The cell suspension was seeded into a 96-well plate at 90 µL per well and allowed to adhere overnight in a 37°C, 5% CO2 incubator. Compound solutions of various concentrations were prepared using DMSO and culture medium, with a vehicle control set. The compound solutions were added to the 96-well plate at 10 µL per well, and the plate was incubated in a 37°C, 5% CO2 incubator for an additional 72-240 hours. After incubation, CellTiter-Glo solution was added, and the mixture was mixed uniformly by shaking, followed by incubation in the dark for 10 to 30 minutes. Luminescence was measured using a Synergy H1 or Envision microplate reader. 5 Experimental data processing method: The inhibition rate was calculated using the luminescence signal values, and the concentrations along with the inhibition rates were subjected to non-linear regression curve fitting using Graphpad Prism software to obtain the IC50 values.

HCT116 wild-type cells = assay: Cell proliferation inhibition (CellTiter-Glo), HCT116 wild-type cells; assay type: cell-based; conditions: Homo sapiens
Source text: as §1, §2

[2] = biological target: T1, PRMT5/MEP50-MTA protein complex (Homo sapiens, UniProt O14744); assay: Thermal shift assay: thermal stability (melting temperature) of PRMT5/MEP50-MTA protein complex; assay type: binding; conditions: final compound concentration 8 µM; 2 µM PRMT5/MEP50, 2 µM MTA; Tm minus Tm of DMSO vehicle control
T1 construct: purchased Viva Biotech
Source text: Test Example 1: Determination of the ability of the compounds of the present invention to improve the thermal stability (melting temperature) of the PRMT5/MEP50-MTA protein complex.
1 Experimental objective: The objective of this test example is to determine the ability of the compound to improve the thermal stability of the PRMT5/MEP50-MTA protein complex, resulting in an increase in the protein melting temperature. 2 Experimental instruments: Quantitative PCR instrument (Quantstudio6 Flex) was purchased from Life Technologies; pipettes were purchased from Eppendorf or Rainin. 3 Experimental reagents and consumables: PRMT5/MEP50 protein was prepared by Viva Biotech; HEPES was purchased from Thermo Fisher Scientific (Cat. No. 15630080); DTT was purchased from Sigma (Cat. No. 43816-10ml); sodium chloride was purchased from Invitrogen (Cat. No. AM9760G); Protein Thermal Shift™ Dye Kit was purchased from Thermo Fisher Scientific (Cat. No. 4461146); methylthioadenosine (MTA) was purchased from Sigma (Cat. No. D5011). 4 Experimental method: In this experiment, the thermal shift method was used to measure the change in the melting temperature (Tm) of the PRMT5/MEP50-MTA protein complex before and after compound binding, thereby characterising the ability of the compound to improve the thermal stability of the PRMT5/MEP50-MTA protein complex. A solution containing 50 mM HEPES, 10 mM DTT, 2 µM MTA, SYPRO Orange and 250 mM NaCl was prepared as the experimental buffer. Human PRMT5/MEP50 protein was added to a final concentration of 2 µM, and the mixture was incubated at room temperature for 30 minutes. The above reaction mixture was aliquoted into 8-strip PCR tubes at 19.5 µL per tube. Then 0.5 µL of test compound or DMSO was added to each tube, providing a total reaction volume of 20 µL and a final compound concentration of 8 µM. 2.5% DMSO was set as the vehicle control. After incubation at room temperature for 10 minutes, the PCR tubes were placed in a PCR instrument, and the melt curve function was selected to measure the melting temperature of the PRMT5/MEP50-MTA protein complex in different treatment groups (heated from 25°C to 95°C, 0.03°C/s). 5 Experimental data processing method: The experimental data files from the PCR instrument were imported into the thermal shift software to obtain the melting temperature (Tm) for each treatment group.

[3] = HCT-116, MTAP Knockout HCT116 cells, proliferation inhibition, Cell Titer-Glo, read-out: MTAP Knockout HCT116 IC50
[4] = HCT-116, HCT116 wild-type cells, proliferation inhibition, Cell Titer-Glo, read-out: HCT116 IC50
[5] = HCT-116, read-out: MTAP Knockout HCT116 IC50

T1 sequence (O14744 whole entry): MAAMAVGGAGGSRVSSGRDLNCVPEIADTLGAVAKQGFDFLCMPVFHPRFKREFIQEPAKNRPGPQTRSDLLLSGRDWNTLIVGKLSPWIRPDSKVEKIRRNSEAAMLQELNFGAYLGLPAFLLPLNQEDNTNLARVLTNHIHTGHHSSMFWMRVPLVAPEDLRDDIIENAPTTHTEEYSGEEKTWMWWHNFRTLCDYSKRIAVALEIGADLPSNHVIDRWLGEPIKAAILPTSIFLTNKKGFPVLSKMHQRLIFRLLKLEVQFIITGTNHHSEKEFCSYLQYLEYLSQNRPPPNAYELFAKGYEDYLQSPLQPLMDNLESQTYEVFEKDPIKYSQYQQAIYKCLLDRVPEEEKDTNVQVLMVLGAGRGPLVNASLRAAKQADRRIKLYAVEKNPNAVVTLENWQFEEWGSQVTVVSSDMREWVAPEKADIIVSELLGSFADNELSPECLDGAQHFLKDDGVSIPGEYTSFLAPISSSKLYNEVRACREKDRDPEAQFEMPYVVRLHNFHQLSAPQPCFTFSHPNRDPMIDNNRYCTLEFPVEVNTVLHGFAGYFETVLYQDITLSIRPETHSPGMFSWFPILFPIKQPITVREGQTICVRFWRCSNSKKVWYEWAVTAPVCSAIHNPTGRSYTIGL
T1 sequence (Q9BQA1 whole entry partner): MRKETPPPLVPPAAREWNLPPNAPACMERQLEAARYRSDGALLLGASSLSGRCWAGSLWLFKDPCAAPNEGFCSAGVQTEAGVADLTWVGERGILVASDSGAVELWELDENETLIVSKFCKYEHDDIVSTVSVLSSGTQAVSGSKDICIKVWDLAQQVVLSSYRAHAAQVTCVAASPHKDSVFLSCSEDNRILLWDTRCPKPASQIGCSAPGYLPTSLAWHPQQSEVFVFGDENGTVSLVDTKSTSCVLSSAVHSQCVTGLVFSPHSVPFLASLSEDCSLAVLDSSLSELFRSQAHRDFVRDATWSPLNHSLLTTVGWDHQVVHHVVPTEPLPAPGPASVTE

`Nc1nc2cc3c(cc2n2cncc12)C(=O)N(C1COCc2nc(C(F)(F)F)ccc21)CC/C=C\3` (stereo not shown) [Example 157, (Z)-4-Amino-11-(2-(trifluoromethyl)-5,8-dihydro-6H-pyrano[3,4-b]pyridin-5-yl)-10,11-dihydroazocino[4,3-g]imidazo[1,5-a]quinoxalin-12(9H)-one] gave a Selectivity [1] of 77, an IC50 [1, 3] of 23 nM and an IC50 (HCT116 wild-type cells; [4]) of 1740 nM. The ΔTm at 8 µM [2] was 11.1 °C.

Work on `Nc1nc2cc3c(cc2c2c1COC2)C(=O)N(Cc1ccc(-c2c(F)cccc2F)cn1)CCCOC3` [Example 431, 4-Amino-12-(5-(2,6-difluorophenyl)pyridin-2-yl)methyl-3,7,9,10,11,12-hexahydrofuro[3,4-c][1,5]oxazolino[7,8-g]quinolin-13(1H)-one] yielded a Selectivity [1] of 61, an IC50 [1, 5] of 3.3 nM and an IC50 (HCT116 wild-type cells; HCT-116, read-out: HCT116 IC50) of 200 nM. The ΔTm at 8 µM [2] was 12.3 °C.

With `Nc1nc2cc3c(cc2n2cncc12)C(=O)N(C1COCc2nc(C(F)(F)F)ccc21)CC/C=C\3` (racemic) [Example 311] the Selectivity [1] was 77, the IC50 [1, 5] was 23 nM and the IC50 (HCT116 wild-type cells; HCT-116, read-out: HCT116 IC50) was 1740 nM. The ΔTm at 8 µM [2] was 11.1 °C.

Work on `Cn1ncc2c(N)nc3cc4c(cc3c21)C(=O)N(Cc1ccc(-c2c(F)cccc2F)cn1)CCCOC4` [Example 427, 4-Amino-12-((5-(2,6-difluorophenyl)pyridin-2-yl)methyl)-1-methyl-1,7,9,10,11,12-hexahydro-13H-[1,5]oxazolo[7,8-g]pyrazolo[4,3-c]quinolin-13-one] yielded a Selectivity [1] of 30, an IC50 [1, 5] of 0.9 nM and an IC50 (HCT116 wild-type cells; HCT-116, read-out: HCT116 IC50) of 27 nM. The ΔTm at 8 µM [2] was 13.7 °C.

In the case of `Nc1nc2cc3c(cc2c2c1COC2)C(=O)N(Cc1ccc(C(F)(F)F)cn1)CCC/C=C\3` [Example 173, (Z)-4-Amino-12-((5-(trifluoromethyl)pyridin-2-yl)methyl)-1,3,9,10,11,12-hexahydro-13H-azo[3,4-g]furo[3,4-c]quinolin-13-one], the Selectivity [1] is reported as 80, the IC50 [1, 3] is reported as 3.5 nM and the IC50 (HCT116 wild-type cells; [4]) is reported as 279 nM. It also gave a ΔTm at 8 µM [2] of 11.6 °C.

`NC1=NC2C=C3CCCCCN(Cc4ccc(C(F)(F)F)cn4)C(=O)C3=CC2n2cncc21` (stereo not shown) [Example 77, 4-Amino-12-((5-(trifluoromethyl)pyridin-2-yl)methyl)-5a,7,8,9,10,11,12,14a-octahydro-13H-azonino[4,3-g]imidazo[1,5-a]quinoxalin-13-one] showed a Selectivity [1] of 20, an IC50 [1, 3] of 12 nM and an IC50 (HCT116 wild-type cells; [4]) of 236 nM. For the same compound, the ΔTm at 8 µM [2] was 11 °C.

For `Nc1nc2cc3c(cc2n2cncc12)C(=O)N([C@@H]1COc2cc(C(F)(F)F)ccc21)CCC/C=C\3` (stereo in doubt) [Example 164-P1, rel-(R, Z)-4-amino-12-(6-(trifluoromethyl)-2,3-dihydrobenzofuran-3-yl)-9,10,11,12-tetrahydro-13H-azo[4,3-g]imidazo[1,5-a]quinoxalin-13-one], the Selectivity [1] was 40, the IC50 [1, 3] was 14 nM and the IC50 (HCT116 wild-type cells; [4]) was 556 nM. It also gave a ΔTm at 8 µM [2] of 11.2 °C.

`Nc1nc2cc3c(cc2c2c1COC2)C(=O)N(Cc1ccc(C24CC(C2)C4)cn1)CCCOC3` [Example 510, 4-Amino-12-((5-(bicyclo[1.1.1]pentan-1-yl)pyridin-2-yl)methyl)-3,7,9,10,11,12-hexahydrofuro[3,4-c][1,5]oxazolo[7,8-g]quinolin-13(1H)-one] was tested, and the Selectivity [1] was 66, the IC50 [1, 5] was 12 nM and the IC50 (HCT116 wild-type cells; HCT-116, read-out: HCT116 IC50) was 771 nM. The ΔTm at 8 µM [2] was 11.3 °C.

With `Nc1nc2cc3c(cc2n2cncc12)C(=O)N(Cc1ccc(-c2c(F)cncc2F)cn1)CCC/C=C\3` [Example 419, (Z)-4-Amino-12-(3',5'-difluoro-[3,4'-bipyridin]-6-yl)methyl-9,10,11,12-tetrahydro-13H-azonino[4,3-g]imidazo[1,5-a]quinoxalin-13-one] the Selectivity [1] was 14, the IC50 [1, 3] was 3.6 nM and the IC50 (HCT116 wild-type cells; [4]) was 51 nM. For the same compound, the ΔTm at 8 µM [2] was 12.7 °C.

For `CC1OCc2c1c(N)nc1cc3c(cc21)C(=O)N(Cc1ccc(-c2c(F)cccc2F)cn1)CCCNC3` (stereo not shown) [Example 435, 4-Amino-12-((5-(2,6-difluorophenyl)pyridin-2-yl)methyl)-3-methyl-1,3,7,8,9,10,11,12-octahydro-13H-[1,5]diamine[7,8-g]furo[3,4-c]quinolin-13-one], the Selectivity [1] was 41, the IC50 [1, 5] was 1.9 nM and the IC50 (HCT116 wild-type cells; HCT-116, read-out: HCT116 IC50) was 78 nM. It also gave a ΔTm at 8 µM [2] of 12.8 °C.
